Results published in the NIST ThermoML archive (doi:10.1021/je0502851).
± gives the expanded uncertainty stated by the source.

Key:
[1] = Crystal; DTA
[2] = Molar enthalpy of transition or fusion; details: Crystal; DSC

| Normal melting temperature [1] [°C] | Molar enthalpy of transition or fusion [2] [kcal/mol] | Structure (SMILES) |
| --- | --- | --- |
| 68.69 ± 0.53 | 16 ± 0.359 | NCCCCCCCCCCCCN [1,12-dodecanediamine] |
| 38.5 ± 0.53 | 9.41 ± 0.263 | NCCCCCCN [1,6-hexanediamine] |
| 81.54 ± 0.53 | 4.67 ± 0.215 | c1ccc2ccccc2c1 [naphthalene] |
| 51.73 ± 0.53 | 12.1 ± 0.359 | NCCCCCCCCN [1,8-diaminooctane] |
